{"source": "patent US20230302036A1", "about": "“COMPOSITIONS FOR TREATMENT OF SPINAL MUSCULAR ATROPHY” (priority 2020, published 2023)", "key": {"[1]": {"system": "H3K9me2 on merged SMN1 and SMN2 genes", "assay": "Genome-wide ChIP-seq analysis of H3K9me2 mark deposition in HEK293T cells", "type": "cell-based, human", "experimental": "The effects of ASO1 and/or VPA on the deployment of the H3K9me2 mark throughout the genome by using ChIP-seq were analyzed."}, "[2]": {"system": "SMA mice", "assay": "Grip-strength test of P7 SMA mice", "type": "in vivo, mouse", "details": "untreated mutants ~35°", "experimental": "ASO1-treated Smn^+/- heterozygote littermates (n=15) served as controls. Scramble (Ctrl) (n=12, 40 trials), VPA (n=13, 50 trials), ASO1 (n=11, 50 trials), ASO1 + VPA (n=17, 68 trials), and untreated heterozygotes (n=12, 36 trials). Statistical significance was analyzed by two-way repeated measures ANOVA. P < 0.05 was considered statistically significant; data are represented as mean + SD. […] In the grip-strength test, the angle at which the pups fell from a tablet with a rough to which they held on by their forelimbs was measured.\nIn the grip-strength test, the angle at which the pups fall from a tablet with a rough surface to which they hold on by their forelimbs was measured."}, "[3]": {"system": "RNAPII (total, P-Ser5, P-Ser2) along the SMN2 gene", "assay": "ChIP-qPCR of RNAPII distribution along the SMN2 gene in HEK293T cells", "type": "cell-based, human", "experimental": "(§1) H3K9me2 (FIG. 2B), total RNAPII (FIG. 2C), P-Ser5 RNAPII (FIG. 2D), and P-Ser2 RNAPII (FIG. 2E) distribution along the SMN2 gene, assessed by ChIP-qPCR in HEK293T cells transfected with the scramble oligo (CTRL) or ASO1 and treated with 10 mM VPA. Four independent immunoprecipitation replicates were conducted per experiment. Data are represented as mean ± S.D. (n = 4, *p < 0.05, two-tailed Student’s t test).\n(§2) Total distribution of H3K9me2 (FIG. 3C), total RNAPII (FIG. 3D), P-Ser5 RNAPII (FIG. 3E), and P-Ser2 RNAPII (FIG. 3F) along the SMN2 gene is shown. This distribution was assessed by ChIP-qPCR in HEK293T cells transfected with the scramble oligo (CTRL) or ASO2 and treated with 10 mM VPA. Four independent immunoprecipitation replicates were conducted per experiment. Data are represented as mean ± S.D. (n = 4, *p < 0.05, two-tailed Student’s t test).\nApproximately 2×10^6 HEK293T cells per sample were treated for 10 min in 1% (v/v) formaldehyde at room temperature to crosslink protein-DNA complexes. Crosslinking was stopped with glycine at a final concentration of 125 mM. Cells were washed twice with cold PBS and swelled on ice for 10 min in 25 mM HEPES pH 8, 1.5 mM MgCl2, 10 mM KCl, 0.1% NP-40, 1 mM DTT and 1× protease inhibitor cocktail set III (Calbiochem). Following Dounce homogenization, the nuclei were collected and resuspended in 1 ml sonication buffer (50 mM HEPES pH 8, 140 mM NaCl, 1 mM EDTA, 0.1% sodium deoxycholate, 0.1% SDS and 1× protease inhibitor cocktail). DNA was sonicated in an ultrasonic bath (Bioruptor Diagenode) to an average length of 200-500 bp. After addition of 1% (v/v) Triton X-100, samples were centrifuged at 15,000 ×g. Supernatants were immunoprecipitated O/N with 40 µl of pre-coated anti-IgG magnetic beads (Dynabeads M-280, Invitrogen) previously incubated with the antibody of interest for 6 hr at 4° C. The antibodies used were: rabbit anti-H3 (2 µg, Abcam ab1791), mouse anti-H3K9me2 (4 µg, Abcam ab1220), rabbit anti H3K9me3 (4 µg, Abcam ab8898), rabbit anti H3K9Ac (2 µg, Abcam ab4441), rabbit anti Rpb1 NTD (2 µg, Cell Signaling, D8L4Y), rabbit Phospho-Rpb1 CTD Ser2 (2 µg, Cell Signaling, E1Z3G), rabbit Phospho-Rpb1 CTD Ser5 (2 µg, Cell Signaling, D9N5I). Control immunoprecipitations were performed with rabbit IgG (1 µg, Abcam ab171870). Beads were washed sequentially for 5 min each in Low-salt (20 mM Tris-HCl pH 8, 150 mM NaCl, 2 mM EDTA, 1% Triton X-100, 0.1% SDS), High-Salt (20 mM Tris-HCl pH 8, 500 mM NaCl, 2 mM EDTA, 1% Triton X-100, 0.1% SDS) and LiCl buffer (10 mM Tris pH 8.0, 1 mM EDTA, 250 mM LiCl, 1% NP-40, 1% Na-deoxycholate) for 5 min at 4° C. and then twice in TE 1x for 2 min at room temperature. Beads were eluted in 1% SDS and 100 mM NaHCO3 buffer for 15 min at 65° C. and crosslinking was reversed for 6 hr after addition of NaCl to a final concentration of 200 mM. Chromatin was precipitated with ethanol overnight, treated with 20 µg proteinase K, and purified by phenol-chloroform extraction. Immunoprecipitated DNA (1.5 µl) and serial dilutions of the 10% input DNA (1:4, 1:20, 1: 100, and 1:500) were analyzed by SYBR-Green real-time qPCR."}, "[4]": {"system": "SMA mice", "assay": "Righting reflex test of P7 SMA mice", "type": "in vivo, mouse", "details": "for righting reflex delay (in words): untreated mutant ~45 seconds", "experimental": "Scramble (Ctrl) (n=12, 40 trials), VPA (n=13, 50 trials), ASO1 (n=11, 50 trials), ASO1 + VPA (n=17, 68 trials), and untreated heterozygotes (n=12, 36 trials). […] In the righting-reflex test, the time it took a mouse to right itself on its back on a flat surface was measured.\nTo complement the survival and weight-gain data, two noninvasive neuromuscular function tests, appropriate for mouse pups, were performed. In the righting reflex test, the time it takes a mouse to right itself when placed on its back on a flat surface was measured (Feather-Schussler et al., 2016)."}, "[5]": {"system": "H3K9Ac along the SMN2 gene", "assay": "ChIP-qPCR of H3K9Ac distribution along the SMN2 gene in HEK293T cells", "type": "cell-based, human", "details": "10 mM VPA 12 hr or ASO1 transfection", "procedure": "Four independent immunoprecipitation replicates were conducted per experiment. Data are represented as mean ± S.D. (n = 4, *p < 0.05, two-tailed Student's t test). […] Top: control Western blot for efficient expression of the c-Myc-SMN fusion protein encoded by plasmid […], cat.# 71687) using anti-tubulin (tub.) as loading control. Bottom: […] Distribution of these histone marks was assessed by ChIP-qPCR, with amplicons mapping near the numbered exons (E) and introns (i). Three independent immunoprecipitation replicates were conducted per experiment. Data are represented as mean ± S.D. (n = 5; in all cases p was much higher than 0.05, two-tailed Student's t test). […] Top: control Western blot for efficient expression of the […] fusion protein encoded by plasmid pEGFP-RNASEH1 (Addgene, cat.# 108699), using anti-actin (act.) as loading control. Bottom: […] Top: control Western blot for efficient AGO1 knockdown using anti-tubulin (tub.) as loading control. Bottom: […] RT-PCR conditions for FIGS. 10A, 10C and 10D were as in FIGS. 1A-1G . Approximately 2×10^6 HEK293T cells per sample were treated for 10 min in 1% (v/v) formaldehyde at room temperature to crosslink protein-DNA complexes. Crosslinking was stopped with glycine at a final concentration of 125 mM. […]"}, "[6]": {"system": "H3K9me2 along the SMN2 gene", "assay": "ChIP-qPCR of H3K9me2 distribution along the SMN2 gene in HEK293T cells", "type": "cell-based, human", "experimental": "as §1, §2\nApproximately 2×10^6 HEK293T cells per sample were treated for 10 min in 1% (v/v) formaldehyde at room temperature to crosslink protein-DNA complexes. Crosslinking was stopped with glycine at a final concentration of 125 mM. Cells were washed twice with cold PBS and swelled on ice for 10 min in 25 mM HEPES pH 8, 1.5 mM MgCl2, 10 mM KCl, 0.1% NP-40, 1 mM DTT and 1× protease inhibitor cocktail set III (Calbiochem). Following Dounce homogenization, the nuclei were collected and resuspended in 1 ml sonication buffer (50 mM HEPES pH 8, 140 mM NaCl, 1 mM EDTA, 0.1% sodium deoxycholate, 0.1% SDS and 1× protease inhibitor cocktail). DNA was sonicated in an ultrasonic bath (Bioruptor Diagenode) to an average length of 200-500 bp. After addition of 1% (v/v) Triton X-100, samples were centrifuged at 15,000 ×g. Supernatants were immunoprecipitated O/N with 40 µl of pre-coated anti-IgG magnetic beads (Dynabeads M-280, Invitrogen) previously incubated with the antibody of interest for 6 hr at 4° C. The antibodies used were: rabbit anti-H3 (2 µg, Abcam ab1791), mouse anti-H3K9me2 (4 µg, Abcam ab1220), rabbit anti H3K9me3 (4 µg, Abcam ab8898), rabbit anti H3K9Ac (2 µg, Abcam ab4441), rabbit anti Rpb1 NTD (2 µg, Cell Signaling, D8L4Y), rabbit Phospho-Rpb1 CTD Ser2 (2 µg, Cell Signaling, E1Z3G), rabbit Phospho-Rpb1 CTD Ser5 (2 µg, Cell Signaling, D9N5I). Control immunoprecipitations were performed with rabbit IgG (1 µg, Abcam ab171870). […] Immunoprecipitated DNA (1.5 µl) and serial dilutions of the 10% input DNA (1:4, 1:20, 1: 100, and 1:500) were analyzed by SYBR-Green real-time qPCR."}, "[7]": {"system": "SMA", "details": "VPA plus carnitine; cited from earlier work"}}, "note": "Oligonucleotides are written 5' to 3', each unit as a sugar letter and its base; * is a phosphorothioate linkage, no mark a phosphodiester; rarer units and linkages stand in square brackets, end groups in braces. Plain capitals give the bases only. e = 2'-O-(2-methoxyethyl) (MOE); [5mC] = 5-methylcytosine"}
{"compound": "ASO1: 5′-ATTCACTTTCATAATGCTGG-3′ 2′-O-methoxyethyl-modified oligonucleotide with phosphorothioate backbone and all 5-methyl cytosines; nusinersen variant with 2-nucleotide extension (antisense eA*eT*eT*e[5mC]*eA*e[5mC]*eT*eT*eT*e[5mC]*eA*eT*eA*eA*eT*eG*e[5mC]*eT*eG*eG)", "values": [{"measurement": "share of control-set genes with lower ASO1/control fold enrichment than SMN1/2", "setting": "[1]; 11,738 protein-coding genes as reference", "value": "~ 91 % of the genes in the control set"}, {"measurement": "enrichment of H3K9me2 ChIP-seq reads compared with the control", "setting": "[1]; HEK293T, merged SMN1 and SMN2 genes", "value": 44, "unit": "%"}, {"measurement": "grip strength, inclination angle at which pups fall", "setting": "[2]", "value": "~ 45 °"}, {"measurement": "P-Ser2 RNAPII density", "setting": "[3]; ASO transfection vs scramble", "value": "greatly increased"}, {"measurement": "P-Ser5 RNAPII density", "setting": "[3]; ASO transfection vs scramble", "value": "greatly increased"}, {"measurement": "total RNAPII density", "setting": "[3]; ASO transfection vs scramble", "value": "greatly increased"}, {"measurement": "righting reflex, time to right", "setting": "[4]", "value": "~ 10 seconds"}, {"measurement": "righting reflex delay (in words)", "setting": "[4]", "value": "greatly reduced"}, {"measurement": "H3K9 acetylation along the SMN2 gene", "setting": "[5]", "value": "not affected"}, {"measurement": "H3K9 dimethylation, peak increase at the promoter and the alternative E7 areas", "setting": "[6]; HEK293T transfected with ASO1 vs scramble oligo", "value": 8, "unit": "fold"}]}
{"compound": "CCCC(CCC)C(=O)O", "note": "[VPA, valproic acid]", "values": [{"measurement": "clinical effectiveness in SMA", "setting": "[7]", "value": "failed to demonstrate effectiveness"}, {"measurement": "reverting effect of VPA on SMN1/2 compared with control genes", "setting": "[1]; ASO1+VPA/control+VPA, 11,738 protein-coding genes", "value": "higher than for the majority of the control genes"}, {"measurement": "decrease of H3K9me2 methylation mark", "setting": "[1]; HEK293T treated with VPA, merged SMN1 and SMN2 genes", "value": 67, "unit": "%"}, {"measurement": "grip strength, inclination angle at which pups fall", "setting": "[2]", "value": "~ 30 °"}, {"measurement": "RNAPII peak (total, P-Ser5, P-Ser2) in ASO1-transfected cells additionally treated with VPA", "setting": "[3]; ASO1 plus 10 mM VPA", "value": "abolished"}, {"measurement": "roadblocks to elongation in ASO2-transfected cells treated with VPA", "setting": "[3]; ASO2 plus 10 mM VPA", "value": "abolished"}, {"measurement": "righting reflex delay (in words)", "setting": "[4]", "value": "not significantly changed"}, {"measurement": "H3K9 acetylation along the SMN2 gene", "setting": "[5]", "value": "promoted intragenic H3K9 acetylation"}, {"measurement": "effect of VPA on ASO1-promoted H3K9me2", "setting": "[6]; HEK293T transfected with ASO1 and treated with 10 mM VPA", "value": "completely abolished the ASO1 effect"}, {"measurement": "H3K9me2 marks along the SMN2 gene", "setting": "[6]; HEK293T, ASO transfection or 10 mM VPA", "value": "reduced the H3K9me2 marks relative to the control"}]}
